According to article PMC10331583, “Control of fibrosis with enhanced safety via asymmetric inhibition of prolyl‐tRNA synthetase 1” (EMBO Molecular Medicine, 2023):
Values joined by “and” are separate entries in the source; they are usually repeats but may differ in a detail not shown here. Equal entries are not always repeated. Where two headings read alike, the source gives them in different places.

Assays:
WI‐26 VA4 cells [1] = experiment: Puromycin incorporation assay; format: cell-based, human
How it was run: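 WI‐26 VA4 cell lysates prepared in carbonate-bicarbonate buffer with protease inhibitor; 400 ng protein coated on ELISA plates 18 h at 4°C. Puromycin incorporated into proteins detected by antibody ELISA, absorbance 450 nm with 620 nm reference; outlier values excluded based on replicates and adjacent concentrations.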

[2] = CellTiter‐Glo assay (cytotoxicity); settings: human, WI-26 VA4 cells
WI‐26 VA4 cells [3] = experiment: CellTiter‐Glo assay (cytotoxicity); settings: for activity at 0.0001 µM / activity at 0.0003 µM / activity at 0.001 µM / activity at 0.003 µM / activity at 0.01 µM / activity at 0.03 µM / activity at 0.1 µM / activity at 0.3 µM / activity at 1 µM / activity at 3 µM / activity at 10 µM / activity at 30 µM / activity at 100 µM: Homo sapiens
WI‐26 VA4 cells [4] = experiment: Collagen ELISA (secreted pro‐collagen I)
Experimental: WI‐26 VA4 cells were seeded at 3.5 × 10^4 cells/well on 24 well plates. After 24 h, the cells were starved of serum for 6 h. Then, the cells were incubated with the indicated concentrations of compounds in the presence of TGF‐β (2 ng/ml) (R&D systems, 240‐B‐002) for 72 h. The supernatant of the cells was collected and centrifuged at 500 g for 5 min to remove cell debris. Then, the level of pro‐collagen I in the supernatant was determined using Human Pro‐collagen I alpha 1 DuoSet ELISA (R&D systems, DY6220‐05) and DuoSet ELISA Ancillary Reagent Kit 2 (R&D systems, DY008) following the manufacturer's instructions.

[5] = log(inhibitor) vs. response, variable slope (four parameters)
[6] = log(inhibitor) vs. response, variable slope (four parameters), concentration in nM

Cc1c(Br)cnc2c1ncn2CC(=O)C[C@H]1NCCC[C@@H]1O [DWN11761]
activity at 30 µM (WI‐26 VA4 cells [1]; Homo sapiens, WI26VA4, 30000 nM, read-out: Puromycin, % of control, average): -0.13%
activity at 100 µM (WI‐26 VA4 cells [1]; Homo sapiens, WI26VA4, 100000 nM, read-out: Puromycin, % of control, average): 0.29%
IC50 (WI‐26 VA4 cells [1]; Homo sapiens, WI26VA4, log(inhibitor) vs. response, variable slope (four parameters), read-out: Puromycin, IC50 (best-fit value)): 581 nM
Puromycin, HillSlope (best-fit value) (WI‐26 VA4 cells [1]; [5]): -3.124
Puromycin, LogIC50 (best-fit value) (WI‐26 VA4 cells [1]; [6]): 2.764
CC50 at 72 h [2]: 294 nM
activity at 0.0001 µM (WI‐26 VA4 cells [3]; WI26VA4, read-out: CellTiter-Glo % of control, 0.1 nM, Experiment #1, replicates): 101%
activity at 0.0001 µM (WI‐26 VA4 cells [3]; WI26VA4, read-out: CellTiter-Glo % of control, 0.1 nM, Experiment #2, replicates): 95.4%
activity at 0.0003 µM (WI‐26 VA4 cells [3]; WI26VA4, read-out: CellTiter-Glo % of control, 0.3 nM, Experiment #1, replicates): 110%
activity at 0.0003 µM (WI‐26 VA4 cells [3]; WI26VA4, read-out: CellTiter-Glo % of control, 0.3 nM, Experiment #2, replicates): 103%
activity at 0.001 µM (WI‐26 VA4 cells [3]; WI26VA4, read-out: CellTiter-Glo % of control, 1 nM, Experiment #1, replicates): 106%
activity at 0.001 µM (WI‐26 VA4 cells [3]; WI26VA4, read-out: CellTiter-Glo % of control, 1 nM, Experiment #2, replicates): 93.8%
activity at 0.003 µM (WI‐26 VA4 cells [3]; WI26VA4, read-out: CellTiter-Glo % of control, 3 nM, Experiment #1, replicates): 100%
activity at 0.01 µM (WI‐26 VA4 cells [3]; WI26VA4, read-out: CellTiter-Glo % of control, 10 nM, Experiment #1, replicates): 104%
activity at 0.03 µM (WI‐26 VA4 cells [3]; WI26VA4, read-out: CellTiter-Glo % of control, 30 nM, Experiment #1, replicates): 94.7%
activity at 0.1 µM (WI‐26 VA4 cells [3]; WI26VA4, read-out: CellTiter-Glo % of control, 100 nM, Experiment #1, replicates): 72.9%
activity at 0.3 µM (WI‐26 VA4 cells [3]; WI26VA4, read-out: CellTiter-Glo % of control, 300 nM, Experiment #1, replicates): 56.9%
activity at 1 µM (WI‐26 VA4 cells [3]; WI26VA4, read-out: CellTiter-Glo % of control, 1000 nM, Experiment #1, replicates): 24.9%
activity at 1 µM (WI‐26 VA4 cells [3]; WI26VA4, read-out: CellTiter-Glo % of control, 1000 nM, Experiment #2, replicates): 12.4%
activity at 3 µM (WI‐26 VA4 cells [3]; WI26VA4, read-out: CellTiter-Glo % of control, 3000 nM, Experiment #1, replicates): 39.6%
activity at 3 µM (WI‐26 VA4 cells [3]; WI26VA4, read-out: CellTiter-Glo % of control, 3000 nM, Experiment #2, replicates): 30.3%
activity at 10 µM (WI‐26 VA4 cells [3]; WI26VA4, read-out: CellTiter-Glo % of control, 10000 nM, Experiment #1, replicates): 14.4%
activity at 10 µM (WI‐26 VA4 cells [3]; WI26VA4, read-out: CellTiter-Glo % of control, 10000 nM, Experiment #2, replicates): 8.9%
activity at 30 µM (WI‐26 VA4 cells [3]; WI26VA4, read-out: CellTiter-Glo % of control, 30000 nM, Experiment #1, replicates): 6.42%
activity at 30 µM (WI‐26 VA4 cells [3]; WI26VA4, read-out: CellTiter-Glo % of control, 30000 nM, Experiment #2, replicates): 4.58%
activity at 100 µM (WI‐26 VA4 cells [3]; WI26VA4, read-out: CellTiter-Glo % of control, 100000 nM, Experiment #1, replicates): 2.45%
activity at 100 µM (WI‐26 VA4 cells [3]; WI26VA4, read-out: CellTiter-Glo % of control, 100000 nM, Experiment #2, replicates): 1.52%
activity at 0.0001 µM (WI‐26 VA4 cells [3]; WI26VA4, read-out: CellTiter-Glo % of control, average, 0.1 nM, average): 102%
activity at 0.0003 µM (WI‐26 VA4 cells [3]; WI26VA4, read-out: CellTiter-Glo % of control, average, 0.3 nM, average): 105%
activity at 0.001 µM (WI‐26 VA4 cells [3]; WI26VA4, read-out: CellTiter-Glo % of control, average, 1 nM, average): 96.9%
activity at 0.003 µM (WI‐26 VA4 cells [3]; WI26VA4, read-out: CellTiter-Glo % of control, average, 3 nM, average): 82.5%
activity at 0.01 µM (WI‐26 VA4 cells [3]; WI26VA4, read-out: CellTiter-Glo % of control, average, 10 nM, average): 91.2%
activity at 0.03 µM (WI‐26 VA4 cells [3]; WI26VA4, read-out: CellTiter-Glo % of control, average, 30 nM, average): 86.4%
activity at 0.1 µM (WI‐26 VA4 cells [3]; WI26VA4, read-out: CellTiter-Glo % of control, average, 100 nM, average): 66.3%
activity at 0.3 µM (WI‐26 VA4 cells [3]; WI26VA4, read-out: CellTiter-Glo % of control, average, 300 nM, average): 51.8%
activity at 1 µM (WI‐26 VA4 cells [3]; WI26VA4, read-out: CellTiter-Glo % of control, average, 1000 nM, average): 20.8%
activity at 3 µM (WI‐26 VA4 cells [3]; WI26VA4, read-out: CellTiter-Glo % of control, average, 3000 nM, average): 32.6%
activity at 10 µM (WI‐26 VA4 cells [3]; WI26VA4, read-out: CellTiter-Glo % of control, average, 10000 nM, average): 11.2%
activity at 30 µM (WI‐26 VA4 cells [3]; WI26VA4, read-out: CellTiter-Glo % of control, average, 30000 nM, average): 5.72%
activity at 100 µM (WI‐26 VA4 cells [3]; WI26VA4, read-out: CellTiter-Glo % of control, average, 100000 nM, average): 1.91%
CellTiter-Glo LogIC50 (best-fit value) (WI‐26 VA4 cells [3]; [6]): 2.468
Collagen, % of control (single replicates per experiment) (WI‐26 VA4 cells [4]; 1 nM, 0.001 µM): 99.09 % of control and 89.14 % of control and 102.78 % of control and 94.15 % of control and 107.84 % of control
Collagen, % of control (single replicates per experiment) (WI‐26 VA4 cells [4]; 3 nM, 0.003 µM): 120.43 % of control and 98.90 % of control and 84.42 % of control and 95.43 % of control and 97.10 % of control and 104.96 % of control
Collagen, % of control (single replicates per experiment) (WI‐26 VA4 cells [4]; 30 nM, 0.03 µM): 79.96 % of control and 82.37 % of control
CC50/collagen IC50 (WI‐26 VA4 cells [4]; Fig 5E): 5.47
IC50 (WI‐26 VA4 cells [4]; Homo sapiens, WI26VA4, read-out: Collagen IC50 (best-fit value), log(inhibitor) vs. response, variable slope (four parameters) (converted)): 53.7 nM
activity at 0.001 µM (WI‐26 VA4 cells [4]; Homo sapiens, WI26VA4, read-out: Collagen, % of control (single replicates per experiment), 1 nM): 109%
activity at 0.1 µM (WI‐26 VA4 cells [4]; Homo sapiens, WI26VA4, read-out: Collagen, % of control (single replicates per experiment), 100 nM): 20.2%
activity at 0.3 µM (WI‐26 VA4 cells [4]; Homo sapiens, WI26VA4, read-out: Collagen, % of control (single replicates per experiment), 300 nM): 3.63%
activity at 0.001 µM (WI‐26 VA4 cells [4]; Homo sapiens, WI26VA4, read-out: Collagen, % of control, average, 1 nM, average): 100%
activity at 0.003 µM (WI‐26 VA4 cells [4]; Homo sapiens, WI26VA4, read-out: Collagen, % of control, average, 3 nM, average): 100%
activity at 0.01 µM (WI‐26 VA4 cells [4]; Homo sapiens, WI26VA4, read-out: Collagen, % of control, average, 10 nM, average): 101%
activity at 0.03 µM (WI‐26 VA4 cells [4]; Homo sapiens, WI26VA4, read-out: Collagen, % of control, average, 30 nM, average): 80.4%
activity at 0.1 µM (WI‐26 VA4 cells [4]; Homo sapiens, WI26VA4, read-out: Collagen, % of control, average, 100 nM, average): 20.6%
activity at 0.3 µM (WI‐26 VA4 cells [4]; Homo sapiens, WI26VA4, read-out: Collagen, % of control, average, 300 nM, average): 3.18%
activity at 1 µM (WI‐26 VA4 cells [4]; Homo sapiens, WI26VA4, read-out: Collagen, % of control, average, 1000 nM, average): 1.53%
activity at 3 µM (WI‐26 VA4 cells [4]; Homo sapiens, WI26VA4, read-out: Collagen, % of control, average, 3000 nM, average): 1.46%
Collagen HillSlope (best-fit value) (WI‐26 VA4 cells [4]; [5]): -2.337
Collagen LogIC50 (best-fit value) (WI‐26 VA4 cells [4]; [6]): 1.73
Relative (CC50)/(collagen IC50) (WI‐26 VA4 cells [4]; relative to HF, Fig 5E): 1.63
